“Also recorded” adds a separate entry of the source. Read-outs that look alike come from different tables or passages of the source.

The EC50 is the concentration that produces a half-maximal response. The term AUC(0-t) denotes exposure summed from dosing to a finite time, without extrapolation to infinity. A word on the Cmax: it is the maximum level reached in the sampled fluid or tissue. The term Tmax denotes the time from dosing to the highest level.

One series deals with beagle dogs. Put plainly: Clinical signs in dogs after inhalation. As for the experimental part:
(§1) Dosimetry was performed in propofol-anesthetized dogs in which nebulized drugs were introduced into a mixing chamber interposed on the inspiratory limb of a canine respirator. Technical trials were performed before each experiment to measure the concentration of drug (μg/L) delivered for each breath. The inhaled drug dose (μg/kg) was calculated using the formula: Inhaled Drug Dose (μg/kg)=Drug Conc. (μg/L)×Minute Ventilation (L/min.)×Time (min.)/Body Weight (kg). […] Clinical signs were monitored over this 72 hr. period.
(§2) Dosimetry was performed in propofol-anesthetized, artificially ventilated dogs in which nebulized drugs were introduced into a mixing chamber interposed on the inspiratory limb of the respirator. Technical trials were performed before each experiment measuring the concentration of drug (μg/L) per breath, minute ventilation and time required to achieve a targeted pulmonary dose. […] Clinical signs (cough, rapid shallow breathing, emesis and pale gums) were also monitored.

In a further series the target is T1, EP2 prostanoid receptor (Homo sapiens, UniProt P43116).
T1 construct: host or cells: CHO-K1
Put plainly: GloSensor cAMP assay in CHO-K1 cells co-transfected with the EP2 receptor. The format is cell-based. The conditions noted are these: for change of potency with incubation time: cAMP dose response curves, 0.5 hr to 8 hr; for ranking of activity: kinetic profile at 10 μM and 5 μM. The text has this: cAMP is a second messenger involved in signal transduction of G-protein coupled receptors (GPCRs) acting through Gα-s and Gα-i proteins. Because the treprostinil receptor is a GPCR, the assay provides an indication of whether the respective prostacyclin compound (or metabolite thereof) binds its receptor and activates the GPCR cell signaling cascade. The GloSensorTM assay harnesses a genetically modified form of firefly luciferase into which a cAMP-binding protein moiety has been inserted. Upon binding of cAMP, a conformational change is induced leading to increased light output. The EP2 prostanoid receptor was cotransfected with the GioSensorm plasmid (Promega) into CHO-K cells as follows. CHO-K cells were harvested when the monoloayer was at 50-90% confluence. First, cells were washed with 5 mL PBS. […] The media was aspirated, and the cell pellet was resuspended in 10 mL of growth media. Cell number was determined using a hemacytometer. […] For small scale transfections of up to 20 wells, the pGLoSensor-22F cAMP plasmid (Promega, Cat #: E2301) (2 apg): […] Cat #: […] P2271) ratio was diluted to a final concentration of 12.6 ng/μL (total plasmid) in Opti-MEM I reduced-serum medium (Life Technologies, Cat #: 1985062). Next, 6 μL of FuGENE HD transfection reagent (Promega, Cat #: E2311) was added to 160 μL of diluted plasmid and mixed carefully by gentle pipetting. The complex was incubated at room temperature for 0 to 10 minutes, and then 8 μL of the complex was added per well of a 96 well white assay plate (Costar, Cat #: 3917) and gently mixed without disturbing the cell monolayer. […] Following incubation, cells were treated and analyzed. For larger scale transfections, the aforementioned steps were scaled up accordingly, and cells were frozen following the last incubation. In order to prepare frozen transfected CHO-K cells, the media was aspirated from culture flasks and cells were rinsed with 5 mL PBS. […] Cell number was determined using a hemacytometer. The media was aspirated, and the cell pellet was resuspended in freezing media (Millipore, cat #: S-002-SF) at 2.5×10^4 cells/vial. Transfected cells were incubated overnight at -80° C. before transfer to liquid nitrogen for long term storage. […] SH30071.03)). […] In preparation for cAMP measurement, the cells were equilibrated with the GloSensor cAMP reagent prior to treatment. For equilibration, the medium was carefully removed from the individual well. Next, 100 μL of equilibration medium ([…] of Glosensor Reagent stock solution (Promega, Cat #: E291), 10% FBS (Hydone, Cat #: SH30071.03) and 88% CO2 independent medium (Life Technologies, Cat #: 18045088)) was added per well of the 96-well plate, and added to the side of each well. The plate was then incubated for 2 hours at room temperature. A first pre-read measurement was taken using a microplate reader (MicroLumat Plus). Plates were incubated for an additional 10 minutes at room temperature, followed by a second pre-read measurement. […] Following treatment, each plate was read every 5 minutes for the duration of the assay using a microplate reader (MicroLumat Plus). In order to determine the fold change in cAMP relative to the control, the transfection efficiency was first determined by dividing the second pre-read measurement by the average of the corresponding pre-read measurements. Next, the normalized relative light units (RLUs) of the samples were determined by dividing the plate read measurement by the transfection efficiency. The fold change in cAMP relative to the control was then determined by dividing the normalized RLU of the samples by the normalized RLU of the control. The cAMP assay was validated using free treprostinil. […] Luminescence was then measured at room temperature. […] Nebulizer Aeroneb Pro (Aerogen) was used to nebulize treprostinil derivative compositions. Desired volume of the formulation (usually 3 mL) was loaded to the mesh head of the nebulizer. […]

Series [1] is described as follows: Treprostinil pharmacokinetics in anaesthetised, ventilated rats after nebulized dosing. The format is in vivo, rat. The method, then:
Male Sprague Dawley rats were anaesthetised and prepared with endotracheal tube for ventilation. The right femoral vein was cannulated to facilitate blood collections. Terminal lung samples were taken for analysis only 6 hours after dosing. […] Systemic blood pressure (mSAP), heart rate (HR), and arterial oxygen saturation (Sa02). Physiologic parameters were measured during normoxia (fraction of inspired oxygen [FrO2]=0.21, SaO2≈90%) and for 2 to 3 hours during hypoxia (FrO2=0.10, SaO2≈50%).

The next series has as its system guinea pigs. Put plainly: Cough reflex in guinea pigs. It counts as in vivo, guinea pig. The method, then: Aerosols were generated with an Ultra-Neb Pro nebulizer (nebulizer output 0.36 mL/min.) that was mixed with inspired air delivered at a rate of 2 L/min. The PBS or drugs were delivered for 10 min. and the number of coughs recorded during and for 20 min. after the delivery. Coughs were detected by visual observations, plethysmograph recordings and cough sounds.

The next series in a line: in vivo. The conditions noted are these: dog. The method, then:
Twelve beagle dogs of either sex were randomly assigned to different inhaled doses of treprostinil in PBS or the compound of Formula (A) wherein R2=
Formulations were nebulized with an Aeroneb nebulizer (MMAD: 2.5-4 μm) delivered into a 500 m1 expansion chamber. Formulations were nebulized for 2 min at ventilator settings of 90 ml/breath, 15 breaths/min (delivered volume=2.7 L) and collected on a filter. Drug amount (μg) on the filter was measured by HPLC to calculate the concentration of drug delivered through the ventilator circuit (μg/L).
as §1, §2

Series [2] can be described thus: Particle size characterization of treprostinil compositions (QELS). It counts as physicochemical. The conditions noted are these: compositions of Table 3, FIG. 2.
Experimental: The compositions in Table 3 were subject to particle size characterization.
All particle size measurements were performed using a Wyatt Technology Mobius™ Zeta Potential/Particle Sizing Instrument in Quasi-elastic light scattering (QELS) mode. Composition aliquots were diluted 10-fold in pre-filtered (0.02 μm pore filter) ultrapure of deionized H2O. Light scattering data was collected and converted into particle size and size distribution using Dynamics® v. 7.2.4 instrument software. Reported average particle size diameter is based on the cumulants model, which mathematically fits particle diffusion constants (determined by the raw scattering intensities of particles in a suspension) to obtain the particle size mean and a distribution of particle sizes around the mean diameter.
Particle uniformity was determined using the software-calculated polydispersity (% PD). Polydispersity is defined as the standard deviation of the particle size distribution from the mean particle size value. % PD normalizes the polydispersity to the mean diameter by dividing by the mean size and multiplying by 100. […]
Dynamics@ polydispersity parameter represents a monodisperse population of particles if % PD ≦15. A calculated % PD ≧57% represents a polydisperse population of particles.
The conditions of series [3]: rat, in vivo. The method, then:
Nebulized treprostinil (TRE) solution and treprostinil alkyl ester formulations were administered (at 15 nmol/kg, or […] TRE equivalent) to anaesthetised-ventilated rats (6-hour studies) or to conscious rats by nose-only inhalation (24-hour studies). Blood and lung samples were collected at specified time points. TRE and treprostinil alkyl ester concentrations in blood plasma and lung tissue were measured by HPLC/MS/MS analysis.
Male Sprague Dawley rats were placed in restraining tubes and exposed to nebulised drugs via the Jaeger-NYU Nose-Only Directed-Flow Inhalation Exposure System (CH Technologies, Westwood, N.J.) (FIG. 31). Test articles (6 mL at specific concentration) were nebulised using the Aeroneb nebuliser to deliver a predetermined estimated pulmonary dose. Blood and lung tissue samples were taken at selected times after nebulization of the drugs over a 24-hour period.

A short description of series [4]: Tolerability and pharmacokinetics in rats, inhaled C16-TR (T748) for 14-consecutive days. As to conditions: inhaled 0.6-18 μg/kg, formulation T748. It counts as in vivo, rat. As for the experimental part: Body weights were recorded daily and organ weights (lungs, heart, liver) were measured 24 hr. after the last drug dose.
The mark [5] stands for this setting: male, Sprague Dawley, rat, inhaled or intranasal, 6 ug/kg, plasma treprostinil, nebulized, estimated pulmonary dose of 6 μg/kg.

T1 sequence (P43116 whole entry): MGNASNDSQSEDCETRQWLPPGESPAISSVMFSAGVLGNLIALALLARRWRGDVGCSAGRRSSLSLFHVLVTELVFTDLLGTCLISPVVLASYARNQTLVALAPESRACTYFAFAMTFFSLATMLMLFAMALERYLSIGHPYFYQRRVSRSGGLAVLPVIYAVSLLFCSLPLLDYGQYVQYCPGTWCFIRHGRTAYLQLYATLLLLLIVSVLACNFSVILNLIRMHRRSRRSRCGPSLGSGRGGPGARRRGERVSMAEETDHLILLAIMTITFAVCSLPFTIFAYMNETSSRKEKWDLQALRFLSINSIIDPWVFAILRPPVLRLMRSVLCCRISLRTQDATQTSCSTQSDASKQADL

Regarding `CCCCC[C@H](O)CC[C@@H]1[C@H]2Cc3cccc(OCC(=O)O)c3C[C@H]2C[C@H]1O` [Treprostinil, (1R,2R,3aS,9aS)-[[2,3,3a,4,9,9a-hexahydro-2-hydroxy-1-[(3S)-3-hydroxyoctyl]-1H-benz[f]inden-5-yl]oxy]acetic acid], in the series on beagle dogs (T623 inhaled doses as high as 46 μg/kg, treprostinil 5 and 16 μg/kg), the “respiratory irritation (coughing, rapid shallow breathing)” value is “present during the recovery period”. Further, in the series with beagle dogs (targeted dose of 18 μg/kg), the adverse clinical signs result was “Adverse clinical signs were seen”. Moreover, on EP2 prostanoid receptor (10 μM, FIG. 3A), the “cAMP levels sustained for” value is on record as “not exhibited”. Moreover, the EC50 on EP2 prostanoid receptor (4.5 hr incubation time, read-out: EC50 (μM) 4.5 hr) is 0.2 µM; at EP2 prostanoid receptor (6.0 hr incubation time, read-out: EC50 (μM) 6.0 hr) it was 0.29 µM; on EP2 prostanoid receptor (8.0 hr incubation time, read-out: EC50 (μM) 8.0 hr), 0.44 µM; at EP2 prostanoid receptor (EC50 (μM) 0.5 hr, 0.5 hr incubation time), 0.18 µM; on EP2 prostanoid receptor (EC50 (μM) 1.0 hr, 1.0 hr incubation time), 0.28 µM; at EP2 prostanoid receptor (EC50 (μM) 2.0 hr, 2.0 hr incubation time), 0.15 µM. The EC50 on EP2 prostanoid receptor (EC50 (μM) 3.0 hr, 3.0 hr incubation time) is 0.16 µM; at EP2 prostanoid receptor (EC50 (μM) 4.0 hr, 4.0 hr incubation time), 0.19 µM; on EP2 prostanoid receptor (EC50 (μM) 5.0 hr, 5.0 hr incubation time), 0.26 µM; on EP2 prostanoid receptor (EC50 (μM) 7.0 hr, 7.0 hr incubation time) it was 0.46 µM. The “Max cAMP level (Fold)” value at EP2 prostanoid receptor (Table 4, compositions of FIGS. 3A-3C (10 μM, 1 μM, 0.1 μM), 8 hours time course) is ~16 Fold; on EP2 prostanoid receptor (Table 5, 5 μM, FIG. 4, 8 hours time course), ~14 Fold; on EP2 prostanoid receptor (Table 6, effect of nebulization, head (5 μM), FIG. 6), ~15 Fold. Moreover, on EP2 prostanoid receptor, the “change of potency with incubation time” value is given as “potency decreases with increasing incubation time”. Besides, the “time by which measurable levels of TRE were no longer seen in the lungs” value in series [1] was < 6 h. The “time up to which measurable levels of TRE were seen in blood plasma” value in series [1] is ≤ 4 h. Further, the AUC(0-t) in series [1] (setting [5]) was 2.13 ng·h/mL. Also, the Cmax in series [1] (setting [5]) was 3.37 ng/mL; in series [1] (male, Sprague Dawley, rat, inhaled, 6 ug/kg, plasma treprostinil, nebulized, estimated pulmonary dose of 6 μg/kg), 3.5 ng/mL; in “in vivo” (beagle, 18 ug/kg), 5.9 ± 0.6 ng/mL; in “in vivo” (both, beagle, inhaled or intranasal, 5 ug/kg) it was 2.7 ng/mL; in “in vivo” (both, beagle, inhaled or intranasal, 16 ug/kg), 5.9 ng/mL. Further, the Tmax in series [1] (setting [5]) was 3 min. Besides, the “exposure concentration that consistently evokes cough” value in the series on guinea pigs (aerosol 1-300 μg/ml) was ≥ 30 µg/mL. For the same compound, the cough bouts in the series on guinea pigs (nebulized concentration of 30 μg/mL) is on record as 1-4. Further, the “guinea pigs with cough” value in the series with guinea pigs (nebulized concentration of 30 μg/mL, 10 min. exposure) is on record as 7 of 7. The “total number of coughs” value with guinea pigs (nebulized concentration of 30 μg/mL, average) was found to be 36±9 coughs. Further, the “treprostinil plasma Cmax, fold higher than with T623 at similar inhaled doses” value in the series “in vivo” (both, beagle) was 15-20 fold. For the same compound, in the series “in vivo”, the “period over which plasma levels of treprostinil were sustained” value is recorded as “disappeared within a few hours”.

With “treprostinil decyl ester [Compound C10-TR]”, the “duration of cAMP levels” value at EP2 prostanoid receptor (5 μM, FIG. 4 and FIG. 5) is given as “sustained significantly longer than free treprostinil”. Besides, at EP2 prostanoid receptor (10 μM, FIG. 3A), the “cAMP levels compared with free treprostinil” value was “equivalent to free treprostinil” and the “cAMP levels sustained for” value was “at least 6 hours”. For the same compound, the “cAMP response compared with free treprostinil” value at EP2 prostanoid receptor (compositions, 5 μM, FIG. 4) was “greater than or equivalent to the response induced by free treprostinil”. Also, the cAMP response levels result on EP2 prostanoid receptor (unformulated compounds, 5 μM, FIG. 5) is given as “equivalent to free treprostinil”. For the same compound, the “polydispersity (% PD)” value in series [2] is on record as “around 15 % PD”.

As to `CCCCCCCCCCCCCCOC(=O)COc1cccc2c1C[C@H]1C[C@@H](O)[C@H](CC[C@@H](O)CCCCC)[C@H]1C2` [Compound C14-TR, tetradecyl-treprostinil], at EP2 prostanoid receptor, the “change of potency with incubation time” value is on record as “increases with incubation time” and the ranking of activity result is listed as “C12-TR>C14-TR>5-nonanyl-TR>C16-TR”. In addition, the “polydispersity (% PD)” value in series [2] is on record as “around 15 % PD”. The “immediately post dose (IPD)” value in series [3] stood at 0.0104 mg/kg.

For the compound `CCCCCCCCCCCCCCCCOC(=O)COc1cccc2c1C[C@H]1C[C@@H](O)[C@H](CC[C@@H](O)CCCCC)[C@H]1C2` [Compound C16-TR, hexadecyl-treprostinil], at EP2 prostanoid receptor, the “change of potency with incubation time” value is “increases with incubation time” and the ranking of activity result is on record as “C12-TR>C14-TR>5-nonanyl-TR>C16-TR”. Besides, in series [4], the “tolerability, body weights and organ weights” value was “no tolerability issues or significant changes (relative to PBS) in body weights and organ weights; also recorded: well tolerated”.

The record behind these values is patent publication US20160318844A1, “PROSTACYCLIN COMPOUNDS, COMPOSITIONS AND METHODS OF USE THEREOF” (Insmed Incorporated, priority 2015, published 2016).
